This note sets out measurements from EP0540090A2, “Liquid cleaning compositions” (UNILEVER N.V., priority 1991, dated 1993).

Like-named read-outs stand apart in the source and are kept apart here. Some results are limits rather than exact numbers.

The nature of data set [1]: Precursor solubility in the liquid phase (2:1 nonionic surfactant blend Vista NI and Synperonic A3), by GC (TAED) and HPLC (rest).
A short description of data set [2]: Storage stability of precursor and percarbonate in the non-aqueous liquid formulation of Example 1. The following applies: Example 1 formulation, after storage for 8 weeks at ambient temperature.
Procedure: The following formulation containing various types of precursors was tested for percarbonate and precursor stability:
[3] abbreviates: 2:1 nonionic surfactant combination (Vista NI and Synperonic A3), ambient temperature.
Where [4] appears, read: 2:1 nonionic surfactant combination (Vista NI and Synperonic A3), ambient temperature, molar solubility multiplied by number of active groups.

On to “2-(N,N,N-trimethylammonium)ethyl sodium 4-sulphophenyl carbonate [Compound B]”, for which, in data set [1], the “% w/w dissolved” value is listed as <0.025 % w/w and the “mmol% active groups dissolved” value was <0.08 mmol%.

For `C[N+](C)(C)Cc1ccc(C(=O)Oc2ccc(S(=O)(=O)[O-])cc2)cc1` [Compound A, 1-[4-(N,N,N-trimethylammoniummethyl)benzoyloxy] benzene-4-sulphonate], the stability precursor in data set [2] is listed as 88% **). For the same compound, the “% w/w dissolved” value in data set [1] (setting [3]) is given as <0.05 % w/w. Besides, in data set [1] (setting [4]), the “mmol% active groups dissolved” value is reported as <0.14 mmol%.

As for `C[N+](C)(C)c1ccc(C(=O)Oc2ccc(S(=O)(=O)[O-])cc2)cc1` [Compound E], in data set [1] (setting [3]), the “% w/w dissolved” value is reported as <0.01 % w/w. Also, the “mmol% active groups dissolved” value in data set [1] (setting [4]) is recorded as <0.03 mmol%.
